Test results: ChEMBL document CHEMBL1201862, “PubChem BioAssay data set” (2004)
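All cell lines were grown in 96-well plates and treated with compound for 48 hours. Abbreviation: GI50, concentration required for 50% inhibition of growth.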 Active and inactive are the calls of the source. Rule as the data show it: active = GI50 up to about 1.1 µM and inactive = higher.

Assays:
Assay in all cases: DTP human tumour cell line panel, 48 h
[1] = test system: 786-0
[2] = test system: K562
[3] = test system: SK-MEL-5
[4] = test system: SK-MEL-2
[5] = test system: COLO 205
[6] = test system: SR
[7] = test system: SK-OV-3
[8] = test system: MOLT-4
[9] = test system: SF-539
[10] = test system: SK-MEL-28
[11] = test system: A498
[12] = test system: SN12C
[13] = test system: OVCAR-5
[14] = test system: HT-29
[15] = test system: NCI-H226
[16] = test system: UO-31
[17] = test system: HOP-62
[18] = test system: IGROV-1
[19] = test system: CAKI-1
[20] = test system: HCT-15

Structure (SMILES) | GI50 [1] | GI50 [2] | GI50 [3] | GI50 [4] | GI50 [5] | GI50 [6] | GI50 [7] | GI50 [8] | GI50 [9] | GI50 [10] | GI50 [11] | GI50 [12] | GI50 [13] | GI50 [14] | GI50 [15] | GI50 [16] | GI50 [17] | GI50 [18] | GI50 [19] | GI50 [20]
CSc1nc2c(c(=O)[nH]1)N=C(c1ccccc1)CC(c1ccccc1)N2 (centres undefined) | 38.5 µM (inactive) | 23.4 µM (inactive) | 28.1 µM (inactive) | 27.8 µM (inactive) | 41.7 µM (inactive) | 21.1 µM (inactive) | 33.6 µM (inactive) | 18.9 µM (inactive) | 23.2 µM (inactive) | 50.6 µM (inactive) | 83.4 µM (inactive) | 21.2 µM (inactive) | 31.3 µM (inactive) | 30.4 µM (inactive) | 39.7 µM (inactive) | 50.4 µM (inactive) | 38.8 µM (inactive) | 23.4 µM (inactive) | 32.1 µM (inactive) | –
O=C(Nc1ccc(Cl)cc1)c1cc(S(=O)(=O)Nc2n[nH]c(=O)[nH]2)c(SSc2cc(Cl)c(C(=O)Nc3ccc(Cl)cc3)cc2S(=O)(=O)Nc2n[nH]c(=O)[nH]2)cc1Cl | > 100 µM (inactive) | > 100 µM (inactive) | > 100 µM (inactive) | > 100 µM (inactive) | > 100 µM (inactive) | > 100 µM (inactive) | > 100 µM (inactive) | > 100 µM (inactive) | – | > 100 µM (inactive) | > 100 µM (inactive) | > 100 µM (inactive) | > 100 µM (inactive) | > 100 µM (inactive) | > 100 µM (inactive) | > 100 µM (inactive) | > 100 µM (inactive) | > 100 µM (inactive) | > 100 µM (inactive) | > 100 µM
CC(C)C1=CCC2C(=C1)CCC1C(C)(C(=O)O)CCCC21C (centres undefined) | > 100 µM (inactive) | – | > 100 µM (inactive) | > 100 µM (inactive) | > 100 µM (inactive) | > 100 µM (inactive) | > 100 µM (inactive) | 63.1 µM (inactive) | > 100 µM (inactive) | > 100 µM (inactive) | > 100 µM (inactive) | > 100 µM (inactive) | > 100 µM (inactive) | 78.5 µM (inactive) | > 100 µM (inactive) | 79.1 µM (inactive) | > 100 µM (inactive) | > 100 µM (inactive) | > 100 µM (inactive) | > 100 µM
CC1(C)OCC2OC3([C@@H]4OC(C)(C)O[C@H]4CO)OC(C)(C)OC3C2O1 (some centres undefined) | > 100 µM (inactive) | > 100 µM (inactive) | > 100 µM (inactive) | > 100 µM (inactive) | > 100 µM (inactive) | > 100 µM (inactive) | – | > 100 µM (inactive) | > 100 µM (inactive) | > 100 µM (inactive) | > 100 µM (inactive) | > 100 µM (inactive) | > 100 µM (inactive) | – | > 100 µM (inactive) | > 100 µM (inactive) | > 100 µM (inactive) | > 100 µM (inactive) | > 100 µM (inactive) | > 100 µM
CC1=C2C(=CC(C)(CO)C2O)C(=O)C(C)(O)C12CC2 (centres undefined) | 0.00337 µM (active) | 0.00279 µM (active) | 0.00108 µM (active) | 0.00148 µM (active) | 0.00353 µM (active) | 0.00347 µM (active) | 0.005 µM (active) | 0.00156 µM (active) | 0.00569 µM (active) | 0.00425 µM (active) | 0.00716 µM (active) | 0.00705 µM (active) | 0.00673 µM (active) | 0.00154 µM (active) | 0.00492 µM (active) | 0.00457 µM (active) | 0.00433 µM (active) | 0.00721 µM (active) | 0.00367 µM (active) | 0.00197 µM
CN(/N=C/c1ccccc1C(=O)O)C1=NCCCCN1 | > 100 µM (inactive) | > 100 µM (inactive) | > 100 µM (inactive) | > 100 µM (inactive) | > 100 µM (inactive) | > 100 µM (inactive) | > 100 µM (inactive) | > 100 µM (inactive) | > 100 µM (inactive) | – | > 100 µM (inactive) | > 100 µM (inactive) | > 100 µM (inactive) | > 100 µM (inactive) | > 100 µM (inactive) | > 100 µM (inactive) | > 100 µM (inactive) | > 100 µM (inactive) | > 100 µM (inactive) | > 100 µM
CCC1=C(CC)C1(C#N)[N+](=O)[O-] | > 100 µM (inactive) | > 100 µM (inactive) | > 100 µM (inactive) | > 100 µM (inactive) | > 100 µM (inactive) | > 100 µM (inactive) | > 100 µM (inactive) | > 100 µM (inactive) | > 100 µM (inactive) | – | > 100 µM (inactive) | > 100 µM (inactive) | > 100 µM (inactive) | > 100 µM (inactive) | > 100 µM (inactive) | > 100 µM (inactive) | > 100 µM (inactive) | > 100 µM (inactive) | > 100 µM (inactive) | > 100 µM
CC(=O)O[C@H]1[C@@H](OC2CCCC2(c2ccccc2)c2ccccc2)O[N+]([O-])=C[C@@H]1c1ccccc1 (some centres undefined) | 1.86 µM (inactive) | 4.41 µM (inactive) | 8.02 µM (inactive) | 8.57 µM (inactive) | 14.6 µM (inactive) | 2.4 µM (inactive) | 14.5 µM (inactive) | 2.63 µM (inactive) | – | 2.55 µM (inactive) | 8.22 µM (inactive) | 4.66 µM (inactive) | 17.6 µM (inactive) | 2.51 µM (inactive) | 20.7 µM (inactive) | 10.7 µM (inactive) | 16.6 µM (inactive) | 2.79 µM (inactive) | 4.85 µM (inactive) | 4.75 µM
O=c1[nH]nc(Cc2ccccc2)n1O | > 100 µM (inactive) | > 100 µM (inactive) | > 100 µM (inactive) | > 10 µM (inactive) | > 100 µM (inactive) | > 100 µM (inactive) | > 100 µM (inactive) | > 100 µM (inactive) | > 100 µM (inactive) | > 100 µM (inactive) | > 100 µM (inactive) | > 100 µM (inactive) | – | > 100 µM (inactive) | > 100 µM (inactive) | > 100 µM (inactive) | > 100 µM (inactive) | > 100 µM (inactive) | > 100 µM (inactive) | –
CC(=O)c1cccc(C)c1C(=O)O | > 100 µM (inactive) | > 100 µM (inactive) | > 100 µM (inactive) | > 100 µM (inactive) | > 100 µM (inactive) | > 100 µM (inactive) | > 100 µM (inactive) | > 100 µM (inactive) | – | > 100 µM (inactive) | > 100 µM (inactive) | > 100 µM (inactive) | > 100 µM (inactive) | > 100 µM (inactive) | > 100 µM (inactive) | > 100 µM (inactive) | > 100 µM (inactive) | > 100 µM (inactive) | > 100 µM (inactive) | > 100 µM
O=C(OCc1ccccc1)c1ccccc1-c1c2ccc(=O)cc-2oc2cc(OCc3ccccc3)ccc12 | 15.1 µM (inactive) | 3.18 µM (inactive) | 5.86 µM (inactive) | 18.7 µM (inactive) | 18.6 µM (inactive) | 4.49 µM (inactive) | – | 1.95 µM (inactive) | 13.6 µM (inactive) | 21.4 µM (inactive) | 25.5 µM (inactive) | 16.9 µM (inactive) | 19.8 µM (inactive) | 18.4 µM (inactive) | 11.6 µM (inactive) | 6.12 µM (inactive) | – | 11 µM (inactive) | 5.22 µM (inactive) | 9.84 µM
Oc1cccc(C2SCc3nc4ccccc4n32)c1 (centres undefined) | > 100 µM (inactive) | 16.9 µM (inactive) | 14.8 µM (inactive) | 76 µM (inactive) | > 100 µM (inactive) | 48.8 µM (inactive) | > 100 µM (inactive) | 31.6 µM (inactive) | > 100 µM (inactive) | 59.4 µM (inactive) | 13.2 µM (inactive) | 82.2 µM (inactive) | 26.2 µM (inactive) | > 100 µM (inactive) | 21.2 µM (inactive) | 35.6 µM (inactive) | – | – | 58.2 µM (inactive) | –
COc1ccc(S(=O)(=O)NNS(C)(=O)=O)cc1OC | > 100 µM (inactive) | > 100 µM (inactive) | > 100 µM (inactive) | > 100 µM (inactive) | > 100 µM (inactive) | > 100 µM (inactive) | – | > 100 µM (inactive) | > 100 µM (inactive) | – | > 100 µM (inactive) | > 100 µM (inactive) | – | > 100 µM (inactive) | > 100 µM (inactive) | > 100 µM (inactive) | > 100 µM (inactive) | > 100 µM (inactive) | > 100 µM (inactive) | > 100 µM
C=C1C(=O)O[C@@H]2/C=C(/C)[C@@H](OC(C)=O)C[C@@H](O)/C(C)=C\[C@@H](OC(=O)[C@]3(C)O[C@@H]3C)[C@@H]12 | 4.57 µM (inactive) | 3.34 µM (inactive) | 11.4 µM (inactive) | 17.2 µM (inactive) | 6.89 µM (inactive) | 4.6 µM (inactive) | 45.8 µM (inactive) | 3.91 µM (inactive) | 21.2 µM (inactive) | 10.9 µM (inactive) | 18.1 µM (inactive) | 12.3 µM (inactive) | 18.6 µM (inactive) | 15.8 µM (inactive) | 40.4 µM (inactive) | – | 40.6 µM (inactive) | 16.2 µM (inactive) | 3.48 µM (inactive) | 12.9 µM
NCCN1CCCCCc2ccccc21 | > 10 µM (inactive) | > 10 µM (inactive) | > 10 µM (inactive) | > 10 µM (inactive) | > 10 µM (inactive) | > 10 µM (inactive) | > 10 µM (inactive) | > 10 µM (inactive) | > 10 µM (inactive) | > 10 µM (inactive) | > 10 µM (inactive) | > 10 µM (inactive) | – | > 10 µM (inactive) | > 10 µM (inactive) | > 10 µM (inactive) | > 10 µM (inactive) | > 10 µM (inactive) | > 10 µM (inactive) | > 10 µM
